Experimental data published in the NIST ThermoML archive (doi:10.1016/j.jct.2015.12.001).

Test: wn = mass fraction of the nth substance listed
Settings: 100 kPa, Liquid, Concentric cylinders viscometry

CCN(CC)CCO [(diethylamino)ethanol] + O
viscosity [mPa·s]
Settings | w1 = 0.3001 | w1 = 0.3499 | w1 = 0.4001 | w1 = 0.4501 | w1 = 0.4999 | w1 = 0.6001
303.2 K | 2.96 | 3.34 | 4.56 | 5.06 | 6.11 | 8.41
313.2 K | 2.12 | 2.36 | 3.12 | 3.65 | 4.33 | 5.52
323.2 K | 1.59 | 1.81 | 2.23 | 2.69 | 3.07 | 3.74
